Common to all, as to type: cell-based, human
The test system of test [1] is HT-1080 cells. As to the kind of experiment: Tube formation assay, HT-1080. How it is done:
Soft agar assay and analysis was carried out as previously described. For scratch assay, confluent monolayer of U2OS and HT-1080 cells were subjected to scratch using a sterile pipette tip. Wounded monolayers were washed to remove debris and incubated with SEN461 at different concentrations for 20 hours. After the incubation period, images were taken under an Axiovert 200M (Zeiss) microscope equipped with a CCD camera, and the gap width was measured using MetaMorph 6.3 software (Universal Imaging Corp.) to calculate the area covered by cells (pixels unit). The tube formation assay was performed using growth factor-reduced Matrigel from BD (BD Biosciences; San Jose, CA, USA). Matrigel was thawed overnight at 4°C and was diluted (1∶1) with phenol red-free DMEM without serum. 100 µl of the diluted matrigel was used to coat the wells of a 96 well plate and was allowed to polymerize for 2 hours at 37°C. […] The tube formation was monitored under a phase contrast microscope (Axiovert 200, Zeiss) and imaged using MetaMorph system (Universal Imaging Corp).

In test [2] the test system is U2OS (osteosarcoma) cells. The test can be described thus: Soft agar assay (anchorage-independent growth), U2OS. The settings on record: Homo sapiens. On the procedure: (§1) Soft agar assay and analysis was carried out as previously described. For scratch assay, confluent monolayer of U2OS and HT-1080 cells were subjected to scratch using a sterile pipette tip. Wounded monolayers were washed to remove debris and incubated with SEN461 at different concentrations for 20 hours. After the incubation period, images were taken under an Axiovert 200M (Zeiss) microscope equipped with a CCD camera, and the gap width was measured using MetaMorph 6.3 software (Universal Imaging Corp.) to calculate the area covered by cells (pixels unit). The tube formation assay was performed using growth factor-reduced Matrigel from BD (BD Biosciences; San Jose, CA, USA). Matrigel was thawed overnight at 4°C and was diluted (1∶1) with phenol red-free DMEM without serum. 100 µl of the diluted matrigel was used to coat the wells of a 96 well plate and was allowed to polymerize for 2 hours at 37°C. After equilibrating the gel with the complete growth medium, 15×10^3 cells were seeded in each well and incubated for 20 hours. The tube formation was monitored under a phase contrast microscope (Axiovert 200, Zeiss) and imaged using MetaMorph system (Universal Imaging Corp).

In test [3] the test system is HT-1080 (fibrosarcoma) cells. As to the kind of experiment: Soft agar assay (anchorage-independent growth), HT-1080. The settings on record: Homo sapiens. On the procedure: as §1
The test system of test [4] is Wnt target gene mRNA in HT-1080 cells. The test can be described thus: Quantitative RT-PCR of Wnt target genes in HT-1080. To be noted: HT-1080, overnight, 10 µmol/L. How it is done: RNA extraction and quantitative RT-PCR (qPCR) expression analysis was performed as described previously. Gene expression analysis was performed using the human housekeeping gene RPL13A. Primers for the hAXIN2, hCDC25A, hc-MYC, hFZD4, hDVL2, hCSNK1G and hVEGF-A were the following: Fw: 5′-CAAGGGCCAGGTCACCAA-3′ Rv: 5′-CCCCCAACCCATCTTCGT-3′; Fw: 5′-[…]-3′ Rv: 5′-[…]-3′; Fw: 5′-GGCTCCTGGCAAAAGGTCA-3′ Rv: 5′-[…]-3′; Fw: 5′-[…]-3′ Rv: 5′-[…]-3′; Fw: 5′-[…]-3′ Rv: 5′-GTCTCCCCGCTCATTGCTC-3′; Fw: 5′-[…]-3′ Rv: 5′-[…]-3′; Fw: 5′-[…]-3′ Rv: 5′-[…]-3′.

In test [5] the test system is Axin1, c-Myc, p21 protein in HT-1080 cells. As to the kind of experiment: Western blotting in HT-1080. To be noted: HT-1080, overnight. For orientation: In western blotting, separated proteins are transferred to a membrane and probed.

Two compounds from article PMC4026528 (PLoS ONE, 2014) can be followed below.

The structures appear in SMILES notation.

`Cc1ccc(C(=O)Nc2ccc(S(=O)(=O)O)c3cc(S(=O)(=O)O)cc(S(=O)(=O)O)c23)cc1NC(=O)c1cccc(NC(=O)Nc2cccc(C(=O)Nc3cc(C(=O)Nc4ccc(S(=O)(=O)O)c5cc(S(=O)(=O)O)cc(S(=O)(=O)O)c45)ccc3C)c2)c1` [Suramin]: the tubule-formation activity result in test [1] (HT-1080, 3 µmol/L, data not shown) was “complete abrogation of tubule formation”.

A word on the IC50: it is the concentration that inhibits the measured activity by half. Read a high IC50 as weaker potency. As to `Oc1nc(-c2ccc(C(F)(F)F)cc2)nc2c1CSCC2` [XAV939, reference compound], the IC50 stood at 0.2 µM in test [2] and 1.9 µM in test [3]. For the same compound, the “c-MYC mRNA” value in test [4] is “comparable activity”. Moreover, the c-Myc protein level entry in test [5] was “did not affect c-Myc protein level”. The tubule-formation activity entry in test [1] (HT-1080, 24 hours exposure, vs DMSO) is “did not produce any change”.
